Experimental data from patent US20250002489A1, “BIFUNCTIONAL COMPOUNDS FOR DEGRADING ITK VIA UBIQUITIN PROTEOSOME PATHWAY” (NURIX THERAPEUTICS, INC., priority 2021, published 2025).

Assays:
[1] = target: T1, ITK (Jurkat or Molt4 cells) (Homo sapiens, UniProt Q08881); assay: ITK Degradation MSD (Meso Scale Discovery) Assay; assay type: cell-based; settings: 4 or 6 hrs incubation; for DC50: best fit IC50 used as DC50
T1 construct: either human Jurkat (Clone E6-1 ATCC TIB-152) or Motl4 (ATCC CRL-1552), were plated; endogenous in cells; host or cells: Jurkat Clone E6-1 (ATCC TIB-152) or Molt4 (ATCC CRL-1552)
T1 sequence (Q08881 1-620): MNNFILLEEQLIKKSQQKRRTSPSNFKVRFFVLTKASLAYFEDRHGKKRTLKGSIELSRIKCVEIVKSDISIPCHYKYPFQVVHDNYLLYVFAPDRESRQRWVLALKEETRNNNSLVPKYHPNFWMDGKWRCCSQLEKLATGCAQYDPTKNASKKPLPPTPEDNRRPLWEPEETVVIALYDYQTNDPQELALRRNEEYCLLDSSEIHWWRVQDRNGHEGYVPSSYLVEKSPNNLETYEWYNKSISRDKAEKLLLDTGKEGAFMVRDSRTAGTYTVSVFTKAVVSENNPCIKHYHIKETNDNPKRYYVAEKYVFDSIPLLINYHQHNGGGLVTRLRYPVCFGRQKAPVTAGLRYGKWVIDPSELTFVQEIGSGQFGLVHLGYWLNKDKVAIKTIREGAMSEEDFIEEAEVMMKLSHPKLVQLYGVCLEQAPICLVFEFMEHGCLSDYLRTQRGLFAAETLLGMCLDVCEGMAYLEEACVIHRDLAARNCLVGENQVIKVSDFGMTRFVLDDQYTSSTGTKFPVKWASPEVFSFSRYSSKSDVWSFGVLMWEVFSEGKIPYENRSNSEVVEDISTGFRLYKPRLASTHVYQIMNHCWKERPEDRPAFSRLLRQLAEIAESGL
Method in brief: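 Jurkat or Molt4 cells at 1×10^6 cells/mL in RPMI/10% FBS treated 4 or 6 hr at 32° C with 7-point, 5-fold compound dilutions (0.5% DMSO). Lysate ITK quantified by MSD sandwich ECL immunoassay; % ITK remaining fitted by four-parameter curve, IC50 taken as DC50, plus Dmax.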

[2] = Mouse PK analysis, plasma concentration by LC/MS/MS after oral administration; assay type: in vivo; settings: mice; for concentration at 2 h: timepoint 2 h; for concentration at 6 h: timepoint 6 h
Procedure: Mouse PK Analysis Compounds 17 and 18 were administered to mice orally. After six hours or twenty-four hours, splenocyte cells were harvested. ITK was evaluated by Western blotting. Plasma concentrations were determined by LC/MS/MS. Plasma samples were protein precipitated by addition of 100 μl of acetonitrile containing 50 ng/ml of internal standard. The resulting mixture was vortexed and centrifuged at 4000 rpm for five minutes. An aliquot of the resultant supernatant (75 μl) was added to 75 μl of 0.1% formic acid in water to constitute the final sample for injection. Samples were injected on a Shimadzu Exion LC Binary Gradient AD Pump HLPC system connected to a Sciex QTRAP 6500+ mass spectrometer. 5 μL of sample was injected onto a Waters Acquity UPLC BEH C18 column 130A (2.1×30 mm, […]) at 40° C. utilizing a flow rate of 700 μL/minute.
Mobile Phase A was 0.1% formic acid in water and mobile phase B was 0.1% formic acid in acetonitrile. A linear gradient of 15-95% B over 1.0 minute was used. The mass spectrometer was operated in positive ion electrospray mode with multiple reaction monitoring for maximum sensitivity. Sciex Analyst software (version 1.6.3) was used for LC/MS/MS instrument control and acquisition. Compound concentration was determined against a standard curve of internal standard versus compound peak area ratio. Noncompartmental PK parameters were determined using Phoenix 32 software (version 8.2.0.4383) from Certara. Plasma concentrations from the LC/MS/MS analyses, dose, route of administration, and desired units were utilized for PK parameter calculations.

[3] = target: T2, ITK (C-terminal HiBiT-tagged Molt4 cells) (Homo sapiens, UniProt Q08881); assay: ITK Degradation HiBiT Assay; assay type: cell-based; settings: for DC50: 4 hrs incubation, best fit IC50 used as DC50; for Dmax: MOLT-4, 4 hrs incubation
T2 construct: expressed in transfected cells; host or cells: Molt4 (ATCC CRL-1552), monoclonal clone 1C10, engineered to express HiBiT-tagged ITK
T2 sequence (Q08881 1-620): T1 sequence (Q08881 1-620)
Procedure: Compounds provided herein were assayed in vitro with ITK HiBit cell lines. Compound dilution series (11-point, 5-fold dilutions in DMSO, columns 2-12 with replicate in rows A/B, C/D, E/F, G, and H at 2000× the final required concentrations were prepared in 96-well plate (Falcon, cat. no. 353077). Column 1, rows A-H were control DMSO. The 2000× solutions ranged from 2 mM to 1.024 nM (final assay concentration range 1 μM to 0.512 pM). The 2000×solutions were added to cells in 10 μL volume, for a final DMSO concentration of 0.5% and final assay compound concentration of 1×. For the cells, C-terminal HiBiT-tagged Molt4 cells (ATCC CRL-1552, monoclonal cell line clone 1C10) were plated at 1×10^6 cells/mL, 100 μL/well ([…]) in complete RPMI (10% FBS, 1% L-glutamine). The cells were incubated with compounds 1-25, 31, and 31 for 4 hrs at 32° C./6% CO2.
Following incubation, 100 μL of complete Nano-Glo HiBiT Lytic Detection Reagent (Nano-Glo HiBiT Lytic Buffer with 1:50 Nano-Glo HiBiT Lytic Substrate and 1:100 LgBiT Protein; Promega cat. no. N3O40) was added. Cells were further incubated for 10 min at room temperature. Luminescence units (LU) were read on an EnVision plate reader (Perkin Elmer, 0.1 sec per well). Percent ITK remaining per sample was calculated as follows: […]
Using Graphpad Prism, % ITK remaining values were plotted as a function of compound concentration. To determine DC50 and Dmax values, resulting curves were fit to the Prism curve-fitting equation “log(inhibitor) vs response−Variable slope (four parameters)” (reported best fit value IC50 used as DC50). ITK was measured with antibody-based MSD (Meso-Scale Discovery) assays shown below.

SMILES	Dmax [1]	DC50 [1]	concentration at 2 h [2]	concentration at 6 h [2]	DC50 [3]	Dmax [3]
Cc1ncsc1-c1ccc([C@H](C)NC(=O)[C@@H]2C[C@@H](O)CN2C(=O)[C@@H](NC(=O)CCN2CCC(CCC(=O)N3CC([C@@H](c4ccccc4)n4cc(NC(=O)c5n[nH]c6c5C[C@@H]5C(F)(F)[C@]5(C)C6)cn4)C3)CC2)C(C)(C)C)cc1 [Compound 26, (4aS,5aR)-5,5-difluoro-N-(1-((S)-(1-(3-(1-(3-(((S)-1-((2S,4R)-4-hydroxy-2-(((S)-1-(4-(4-methylthiazol-5-yl)phenyl)ethyl)carbamoyl)pyrrolidin-1-yl)-3,3-dimethyl-1-oxobutan-2-yl)amino)-3-oxopropyl)piperidin-4-yl)propanoyl)azetidin-3-yl)(phenyl)methyl)-1H-pyrazol-4-yl)-5a-methyl-1,4,4a,5,5a,6-hexahydrocyclopropa[f]indazole-3-carboxamide]	–	–	–	–	6.61 nM	–
Cc1ncsc1-c1ccc([C@H](C)NC(=O)[C@@H]2C[C@@H](O)CN2C(=O)[C@@H](NC(=O)CCCCCCCCCC(=O)N2CC([C@@H](c3ccccc3)n3cc(NC(=O)c4n[nH]c5c4C[C@@H]4C(F)(F)[C@]4(C)C5)cn3)C2)C(C)(C)C)cc1 [Compound 27, (4aS,5aR)-5,5-difluoro-N-(1-((S)-(1-(11-(((S)-1-((2S,4R)-4-hydroxy-2-(((S)-1-(4-(4-methylthiazol-5-yl)phenyl)ethyl)carbamoyl)pyrrolidin-1-yl)-3,3-dimethyl-1-oxobutan-2-yl)amino)-11-oxoundecanoyl)azetidin-3-yl)(phenyl)methyl)-1H-pyrazol-4-yl)-5a-methyl-1,4,4a,5,5a,6-hexahydrocyclopropa[f]indazole-3-carboxamide]	–	–	–	–	–	35%
Cc1ncsc1-c1ccc([C@H](C)NC(=O)[C@@H]2C[C@@H](O)CN2C(=O)[C@@H](NC(=O)CCCCCCCC(=O)N2CC([C@@H](c3ccccc3)n3cc(NC(=O)c4n[nH]c5c4C[C@@H]4C(F)(F)[C@]4(C)C5)cn3)C2)C(C)(C)C)cc1 [Compound 28, (4aS,5aR)-5,5-difluoro-N-(1-((S)-(1-(9-(((S)-1-((2S,4R)-4-hydroxy-2-(((S)-1-(4-(4-methylthiazol-5-yl)phenyl)ethyl)carbamoyl)pyrrolidin-1-yl)-3,3-dimethyl-1-oxobutan-2-yl)amino)-9-oxononanoyl)azetidin-3-yl)(phenyl)methyl)-1H-pyrazol-4-yl)-5a-methyl-1,4,4a,5,5a,6-hexahydrocyclopropa[f]indazole-3-carboxamide]	–	–	–	–	1.41 nM	91%

Second part, the compound after the results:

Dmax [1]	DC50 [1]	concentration at 2 h [2]	concentration at 6 h [2]	DC50 [3]	Dmax [3]	SMILES
95.7%	4.51 nM	1.8 nM	4.5 nM	–	–	Cc1ncsc1-c1ccc(CNC(=O)[C@@H]2C[C@@H](O)CN2C(=O)[C@@H](NC(=O)C2(F)CC2)C(C)(C)C)c(OCCOCCC(=O)N2CC([C@@H](c3ccccc3)n3cc(NC(=O)c4n[nH]c5c4C[C@@H]4C(F)(F)[C@]4(C)C5)cn3)C2)c1 [Compound 17, (4aS,5aR)-5,5-difluoro-N-(1-((S)-(1-(3-(2-(2-(((2S,4R)-1-((S)-2-(1-fluorocyclopropane-1-carboxamido)-3,3-dimethylbutanoyl)-4-hydroxypyrrolidine-2-carboxamido)methyl)-5-(4-methylthiazol-5-yl)phenoxy)ethoxy)propanoyl)azetidin-3-yl)(phenyl)methyl)-1H-pyrazol-4-yl)-5a-methyl-1,4,4a,5,5a,6-hexahydrocyclopropa[f]indazole-3-carboxamide]
95.1%	1.47 nM	6.1 nM	16.2 nM	–	–	Cc1ncsc1-c1ccc(CNC(=O)[C@@H]2C[C@@H](O)CN2C(=O)[C@@H](NC(=O)C2(F)CC2)C(C)(C)C)c(OCCCCCC(=O)N2CC([C@@H](c3ccccc3)n3cc(NC(=O)c4n[nH]c5c4C[C@@H]4C(F)(F)[C@]4(C)C5)cn3)C2)c1 [Compound 18, (4aS,5aR)-5,5-difluoro-N-(1-((S)-(1-(6-(2-(((2S,4R)-1-((S)-2-(1-fluorocyclopropane-1-carboxamido)-3,3-dimethylbutanoyl)-4-hydroxypyrrolidine-2-carboxamido)methyl)-5-(4-methylthiazol-5-yl)phenoxy)hexanoyl)azetidin-3-yl)(phenyl)methyl)-1H-pyrazol-4-yl)-5a-methyl-1,4,4a,5,5a,6-hexahydrocyclopropa[f]indazole-3-carboxamide]
–	–	–	–	19.7 nM	84%	Cc1ncsc1-c1ccc([C@H](C)NC(=O)[C@@H]2C[C@@H](O)CN2C(=O)[C@@H](NC(=O)CCCCCC(=O)N2CC([C@@H](c3ccccc3)n3cc(NC(=O)c4n[nH]c5c4C[C@@H]4C(F)(F)[C@]4(C)C5)cn3)C2)C(C)(C)C)cc1 [Compound 29, (4aS,5aR)-5,5-difluoro-N-(1-((S)-(1-(7-(((S)-1-((2S,4R)-4-hydroxy-2-(((S)-1-(4-(4-methylthiazol-5-yl)phenyl)ethyl)carbamoyl)pyrrolidin-1-yl)-3,3-dimethyl-1-oxobutan-2-yl)amino)-7-oxoheptanoyl)azetidin-3-yl)(phenyl)methyl)-1H-pyrazol-4-yl)-5a-methyl-1,4,4a,5,5a,6-hexahydrocyclopropa[f]indazole-3-carboxamide]
–	–	–	–	–	35%	Cc1ncsc1-c1ccc(CNC(=O)[C@@H]2C[C@@H](O)CN2C(=O)[C@@H](NC(=O)C2(F)CC2)C(C)(C)C)c(OC2CN(c3ccnc(N4CC([C@@H](c5ccccc5)n5cc(NC(=O)c6n[nH]c7c6C[C@@H]6C(F)(F)[C@]6(C)C7)cn5)C4)c3)C2)c1 [Compound 35, (4aS,5aR)-5,5-difluoro-N-(1-((S)-(1-(4-(3-(2-(((2S,4R)-1-((S)-2-(1-fluorocyclopropane-1-carboxamido)-3,3-dimethylbutanoyl)-4-hydroxypyrrolidine-2-carboxamido)methyl)-5-(4-methylthiazol-5-yl)phenoxy)azetidin-1-yl)pyridin-2-yl)azetidin-3-yl)(phenyl)methyl)-1H-pyrazol-4-yl)-5a-methyl-1,4,4a,5,5a,6-hexahydrocyclopropa[f]indazole-3-carboxamide]
